Marks after values point to notes of the source that are not given here.
Legend:
S-180 sarcoma tumor = assay: S-180 sarcoma in white crossbred mice (Example 7); assay type: in vivo; conditions: day 21
Procedure: After transplantation of the S-180 sarcoma tumor into white crossbred mice, the animals received the substance MOC.melphalan by intraabdominal administration in a dosage of 1 mg/kg in 0.3 ml of 10% DMSO solution on days 3, 5 and 9. The animals were sacrificed on day 21 of the investigation and underwent histological, morphological examination (table 11).
(§1) After transplantation of the S-180 sarcoma tumor into white crossbred mice, the animals received MOC.melphalan and melphalan by intraabdominal administration in a dosage of 5 mg/kg in 0.3 ml of 10% DMSO solution on days 3, 5, 7 and 9. The animals were sacrificed on day 21 of the investigation and underwent histological, morphological examination (table 12).
as §1, with “2, 4, 6, 8” for “3, 5, 7”, “10.” for “9.”, “13).” for “12).”

C-180 sarcoma = assay: Antitumor activity for C-180 sarcoma, intraperitoneal; assay type: in vivo; conditions: 5 mg/kg intraperitoneal
Procedure: 4. Antitumor Activity for C-180 Sarcoma
The results of series of experiments in which the stated active ingredient was administered intra-peritoneally in the stated dosage in physiological saline solution are shown in table 5 below.

[1] = in vivo; cited from earlier work
sarcoma-180 tumor [2] = assay: Sarcoma-180 tumor, MOC.tegafur and tegafur (Example 11, Exp. III); assay type: in vivo, mice; conditions: for Tumor weight: control 3.9
Procedure: 48 hours after transplantation of the sarcoma-180 tumor, mice of the Balb line received the substance MOC.tegafur by intraabdominal administration in 0.3 ml of a physiological solution. Administration took place on days 3, 5 and 9. The animals were sacrificed on day 21 of the investigation.

AKATON tumor [3] = assay: AKATON tumor, MOC.tegafur and tegafur (Example 11, Exp. I, II); assay type: in vivo, mice
Procedure: 48 hours after transplantation of the AKATON tumor (adenocarcinoma of the small bowel), the mice of the Balb line received the substance MOC.tegafur in a dosage of 5 mg/kg of body weight by intraabdominal administration in 0.3 ml of a physiological solution. This took place on days 3, 5, 7 and 9. The animals were sacrificed on day 21 of the investigation.
48 hours after transplantation of the AKATON tumor, the mice of the Balb line received the substance MOC.tegafur by intravenous administration in 0.3 ml of a physiological solution. This took place on days 3, 5, 7 and 9. The animals were sacrificed on day 21 of the investigation.

[4] = Solubility and stability in air
[5] = tested on: tumor cell cultures (KML); assay: Protein synthesis: inclusion of 3H-amino acids in tumor cell cultures; assay type: cell-based, mice; conditions: 50 μg/ml, incubation 24 hours
Procedure: The effect of the substances on protein synthesis is determined with the aid of the suppression stage through the inclusion of radioactive precursors of amino acids (totaled mixture of ^3H-amino acids). 1 million cells in a “log phase” were selected for this. The complexes were introduced in a dosage of 50 μg/ml and, in parallel, the amino acids with an activity of 10 mCi/ml were introduced into 10 ml bottles. After incubation for 24 hours, the cells were washed out from the cultivation nutrient medium, and a lysis (disruption) was carried out. The radioactivity of the proteins was determined in a […] (table 25).

AKATON tumor [6] = assay: AKATON tumor transplanted after administration of MOC.tegafur; assay type: in vivo; conditions: 5 mg/kg i.v. 4 days in succession before transplantation
Procedure: The product was administered intravenously in a physiological solution of 0.3 ml on 4 days in succession (table 20). The AKATON tumor was then transplanted.

B-16 melanoma tumor = assay: B-16 melanoma tumor, MOC.melphalan and MOC.tegafur (Example 13); assay type: in vivo, mice; conditions: Dose 5 mg/kg (table), day 16
Procedure: MOC.tegafur was administered in a physiological solution. The animals in the control group likewise received administration of the solutions (without products). On day 16, the mice were sacrificed by decapitation, tumor tissue was removed for histological examination, and the tumor was investigated for antitumor activity (table 23). The tumors were fixed with 10% formalin, which was followed by embedding in paraffin. The section thickness of 5 μm were stained with hematoxylin-eosinome. The microscopy was carried out with a Leica Galen microscope.

sarcoma-180 tumor [7] = assay: Sarcoma-180 tumor tissue changes and mitoses (Example 12); assay type: in vivo, mice; conditions: 5 mg/kg intraabdominal days 3, 5, 9
Procedure: The sarcoma-180 tumor was transplanted with a weight of 20 to 22 g into sexually mature crossbred mice. 48 hours after the transplantation of the sarcoma-180 tumor, the mice received the substance MOC.tegafur in a dosage of 5 mg/kg of body weight by intraabdominal administration in 0.9% NaCl solution. Administration took place on days 3, 5 and 9.
On day 21, the mice were sacrificed by decapitation and the tumor tissue was removed for histological examination. The antitumor activity of MOC.tegafur was provisionally determined.
In the investigation, the activity of the tumor tissue was determined in animals which received the product MOC.tegafur and in untreated animals in the control. The number of mitoses and the mitosis index was calculated. The average number of mitoses in the investigation group was 2.55% and in the control animal group was 11.2%. The mitosis index in these animal groups was 0.9 and 4.75. On examination under the microscope, an increase in the number of pathological metaphases and anaphases was observed.

[8] = tested on: tumor cell cultures (KML); assay: Suppression of cell proliferation in tumor cell cultures (KML); assay type: cell-based, mice; conditions: incubation 24 hours
Procedure: The effect of the substances MOC.melphalan and MOC.tegafur of the invention on the proliferative activity, morphology and protein synthesis was investigated on tumor cell cultures (KML). This took place with the mice separated out of the melanoma-16 line. 80 000 cells/ml were distributed in 3 ml of DMEM with the addition of embryonic calf serum, 200 μ/mol of glutamine and antibiotic. After cultivation of the cells at a temperature of 37° C. for 24 hours (logarithmic cell growth phase), the MOC substances were added in the concentration of 10 and 100 μg/ml. After incubation for 24 hours, the number of live cells was determined. In parallel, the fixed specimens of the cells were prepared for morphological analysis.

[9] = 3 mg/kg intraabdominal days 3, 5, 9, day 21
[10] = 5 mg/kg intraabdominal days 3, 5, 9, day 21

## N[C@@H](Cc1ccc(N(CCCl)CCCl)cc1)C(=O)O [Melphalan, 4-[bis(2-chloroethyl)amino]-L-phenylalanine, reference compound]
S-180 sarcoma tumor; 5 mg/kg intraabdominal days 2, 4, 6, 8, 10
  Percentage inhibition: 38%
S-180 sarcoma tumor; 5 mg/kg intraabdominal days 2, 4, 6, 8, 10, control 3.9 ± 0.5
  Average tumor mass: 2.4 ± 1.1 g
S-180 sarcoma tumor; 5 mg/kg intraabdominal days 3, 5, 7, 9
  Percentage inhibition: 49%
S-180 sarcoma tumor; 5 mg/kg intraabdominal days 3, 5, 7, 9, control 2.8
  Average tumor mass: 1.4 g
C-180 sarcoma
  % inhibition: 49%
C-180 sarcoma; control 2.8
  Mass of the tumor: 2.4 ± 1.1 g

## O=c1[nH]c(=O)n(C2CCCO2)cc1F (stereo not drawn) [Tegafur, 5-fluoro-1-(tetrahydro-2-furyl)uracil, reference compound]
[1]
  LD50: 650 mg/kg
sarcoma-180 tumor [2]; 250 mg/kg three times
  Percent inhibition: 20.5%
  Tumor weight: 3.1 g
AKATON tumor [3]; 250 mg/kg intravenous four times
  Percent inhibition: 51%
AKATON tumor [3]; 250 mg/kg intravenous four times, control 4.3
  Tumor weight: 2.1 g
AKATON tumor [3]; 250 mg/kg, four times, intraabdominal experiment
  Percent inhibition: 54.5%
AKATON tumor [3]; 250 mg/kg, four times, intraabdominal experiment, control 4.4
  Tumor weight: 1.95 g

## Cu(C5H7O2)2.C8H9O3N2F [MOC.tegafur]
[4]; in ether and chloroform
  solubility: insoluble
[4]; in water, physiological solution, methanol, ethanol, DMSO and Twin-80
  solubility: readily soluble
[5]
  Suppression of amino acid inclusion: 77%
AKATON tumor [6]
  Percent inhibition of tumor volume: 61.3* %
  Percent inhibition of tumor weight: 50* %
AKATON tumor [6]; control 4.46
  Tumor weight: 2.20 g
AKATON tumor [6]; control 7.90
  Size of the tumor: 3.06 cm^3
B-16 melanoma tumor; control 4.22
  MI (mitosis index): 0.86
B-16 melanoma tumor; intraabdominal days 3, 5, 9
  Percent inhibition: 65.66%
B-16 melanoma tumor; intraabdominal days 3, 5, 9, control 3.22
  Tumor weight: 1.13 g
sarcoma-180 tumor [7]; control 4.75
  mitosis index: 0.9
sarcoma-180 tumor [7]; control 11.2%
  average number of mitoses: 2.55%
sarcoma-180 tumor [7]; day 21, provisionally determined
  percent inhibition of tumor proliferation: 96.4%
sarcoma-180 tumor [2]; [9]
  Percent inhibition: 89%
  Tumor weight: 0.43 g
sarcoma-180 tumor [2]; [10]
  Percent inhibition: 95%
  Tumor weight: 0.195 g
[8]; 10 μg/ml
  Suppression of growth cells: 32%
[8]; 100 μg/ml
  Suppression of growth cells: 100%
AKATON tumor [3]; 5 mg/kg intraabdominal days 3, 5, 7, 9, day 21
  Percent inhibition: 86%
AKATON tumor [3]; 5 mg/kg intraabdominal days 3, 5, 7, 9, day 21, control 4.4
  Tumor weight: 0.61 g
AKATON tumor [3]; 5 mg/kg intravenous days 3, 5, 7, 9, day 21
  Percent inhibition: 80%
AKATON tumor [3]; 5 mg/kg intravenous days 3, 5, 7, 9, day 21, control 4.3
  Tumor weight: 0.86 g
